Read-outs that look alike come from different tables or passages of the source.
Tests used:
D55C MelBSt mutant = biological target: T1, D55C MelBSt mutant (Salmonella typhimurium, UniProt P30878, D55C); type: binding, Salmonella enterica serovar Typhimurium; settings: for Cation binding by ITC: 40 mM NaCl or LiCl titrant, absence or presence of saturating melibiose; for Kd: ITC 25 °C
T1 construct: His10 (C); made in house; host or cells: E. coli DW2
Method: All ITC ligand-binding assays were performed with the TA Instruments (Nano-ITC device) as described ([15]), which yields the exothermic binding as a positive peak. […] MelBSt protein samples were buffer-matched to the assay buffer by dialysis.
(§1) All samples were degassed using a TA Instruments Degassing Station (model 6326) for 15 min. During the titration, the heat changes were collected at 25 °C, and data processing was performed with the NanoAnalyze (version 3.7.5 software) provided with the instrument. The normalized heat changes were subtracted from the heat of dilution elicited by the last few injections, where no further binding occurred, and the corrected heat changes were plotted against the mole ratio of titrant versus titrand. The binding association constant (Ka) values were obtained by fitting the data using the one-site independent-binding model included in the NanoAnalyze software (version 3.7.5).

WT MelBSt [1] = biological target: T2, WT MelBSt (Salmonella typhimurium, UniProt P30878); settings: cited from earlier work
T2 construct: His10 (C); made in house; host or cells: E. coli DW2

WT MelBSt [2] = biological target: T2, WT MelBSt; assay: ITC ligand-binding assay, purified WT MelBSt; parameters: species or system Salmonella enterica serovar Typhimurium; settings: for Kd: ITC, read-out: Kd of melibiose binding
Method: All ITC ligand-binding assays were performed with the TA Instruments (Nano-ITC device) as described ([15]), which yields the exothermic binding as a positive peak. In a typical experiment, the titrand (MelBSt) placed in the ITC Sample Cell was titrated with the specified titrant Na^+, Li^+, melibiose, or α-NPG (placed in the Syringe) in the assay buffer by an incremental injection of 2-μL aliquots at an interval of 300 s at a constant stirring rate of 250 rpm (nano-ITC). MelBSt protein samples were buffer-matched to the assay buffer by dialysis. For measuring Na^+ or Li^+ binding, 100 mM choline chloride was supplemented into the Na^+-free buffer.
as §1

[3] = tested on: WT MelBSt expressed in E. coli DW2 cells; assay: [3H]melibiose transport assay in intact E. coli DW2 cells, CCCP effect, WT MelBSt; type: cell-based, Salmonella enterica serovar Typhimurium
Method: (§2) E. coli DW2 cells transformed with a given plasmid were grown in Luria-Bertani (LB) broth with 100 mg/L ampicillin in a 37 °C shaker. The overnight cultures were diluted by 5% to fresh LB broth with 0.5% glycerol and 100 mg/L ampicillin and shaken at 30 °C for 5 h. The cells were washed with 50-ml 100 mM KPi, pH 7.5 three times, followed by washing with the assay buffer (100 mM KPi, pH 7.5, 10 mM MgSO4). The cell pellets were resuspended and adjusted to A420 = 10 (∼0.7 mg proteins/ml) with the assay buffer. The transport assay was performed at 0.4 mM [^3H]melibiose (specific activity of 10 mCi/mmol) in the absence of Na^+ and Li^+ or the presence of Na^+ or Li^+ as described ([4], [35]) to test the three transport model coupling to H^+, Na^+, or Li^+, respectively. The transport time courses were carried out by quenching the cells at zero, 5 s, 10 s, 30 s, 1 m, 2 m, 5 m, 10 m, and 30 m by dilution and fast filtration. The filters were subjected to radioactivity measurements using a liquid scintillation counter.
(§3) The CCCP effect on the transport activity at varied pH conditions in the absence of Na^+ and Li^+ was conducted by incubating the extensively washed Na^+-free, Li^+-free cells with 10 μM CCCP for 10 min prior to the transport assay.
(§4) E. coli DW2 cells expressing the WT MelBSt, D55C, or D59C mutants were prepared as described above. […]

[4] = tested on: D55C MelBSt expressed in E. coli DW2 cells; assay: [3H]melibiose transport assay in intact E. coli DW2 cells, CCCP effect, D55C MelBSt; type: cell-based, Salmonella enterica serovar Typhimurium; settings: D55C mutant
Method: as §2, §3, §4

Asp59 = Asp59 (UniProt position 59, WDAINDPIMGW); assay: ITC; settings: cited from earlier work
[5] = pH 7.5, 100 mM Na+ vs no Na+, from Kd values of ref [8]
[6] = 10 μM CCCP, all tested external pH conditions, zero, 2 m, 10 m
[7] = cells pre-incubated with 10 μM CCCP, 0.4 mM melibiose, no Na+ and Li+, pH 7.5

For `[Na+]` [Na^+], the “Cation binding by ITC” value (D55C MelBSt mutant) is given as “eliminated the binding” and the “Cooperativity number (ratio of Kd values of melibiose and cation in absence or presence of the other)” value (WT MelBSt [1]; melibiose and Na+, ref [15]) is given as “approximately 8”.
In the case of `[H+]` [H^+], the “absolute dissociation constant for H+ (pKa value)” value (WT MelBSt [1]; absence of melibiose, ref [15]) is listed as 6.25, the Kd (WT MelBSt [1]; absence of melibiose, ref [15], read-out: absolute KD(H+)) is listed as 0.56 µM and the Cooperativity number (WT MelBSt [1]; melibiose and H+, based on the effect of sugar on the H+ affinity, ref [15]) is listed as “less than 2”. For the same molecule, the “absolute dissociation constant for H+ (pKa value)” value (WT MelBSt [1]; presence of melibiose, ref [15]) was 6.5 and the Kd (WT MelBSt [1]; presence of melibiose, ref [15], read-out: absolute KD(H+)) was 0.26 µM.
For `O=[N+]([O-])c1ccc(O[C@H]2O[C@H](CO)[C@H](O)[C@H](O)[C@H]2O)cc1` [α-NPG, 4-nitrophenyl-α-D-galactopyranoside], the “Affinity change of α-NPG with Na+” value (WT MelBSt [2]; [5]) was “+ 1.68-fold”, the Kd (D55C MelBSt mutant; pH 7.5, 100 mM Na+, read-out: Kd of α-NPG binding) was 13.5 ± 1.38 µM and the Kd (D55C MelBSt mutant; pH 7.5, no Na+, read-out: Kd of α-NPG binding) was 15.1 ± 1.86 µM. The Kd (WT MelBSt [1]; WT MelBSt, pH 7.5, 100 mM Na+, ITC, ref [8], read-out: Kd of α-NPG binding) was 25.7 ± 4.42 µM and the Kd (WT MelBSt [1]; WT MelBSt, pH 7.5, no Na+, ITC, ref [8], read-out: Kd of α-NPG binding) was 43.2 ± 0.62 µM.
In the case of `N#CC(C#N)=NNc1cccc(Cl)c1` [CCCP, carbonyl cyanide m-chlorophenylhydrazone], the “CCCP effect on melibiose transport at varied external pH” value [3, 6] is reported as “completely abolished”, the “CCCP effect on H+-coupled melibiose transport activity” value [3, 7] is reported as “completely inhibited” and the “CCCP effect on melibiose transport at varied external pH” value [4, 6] is reported as “completely abolished”. The “CCCP effect on H+-coupled melibiose transport activity” value [4, 7] was “completely inhibited”.
In the case of `OC[C@H]1O[C@H](OCC2O[C@@H](O)[C@H](O)[C@@H](O)[C@@H]2O)[C@H](O)[C@@H](O)[C@H]1O` (stereo partly drawn) [Melibiose, melibiose], the Kd (WT MelBSt [2]; pH 6.25, Na+-free buffer) is reported as 6190 ± 590 µM, the “Affinity change of melibiose with pH” value (WT MelBSt [2]; pH 6.25 vs pH 8.5, no Na+) is reported as “+1.37-fold” and the “Affinity change of melibiose with Na+” value (WT MelBSt [2]; [5]) is reported as “+8.51-fold”. For the same molecule, the “Affinity change of melibiose with Na+” value (WT MelBSt [2]; pH 7.5, 100 mM Na+ vs no Na+, from Kd values of ref [8], listed as melibiose) was 8.51 fold, the Kd (WT MelBSt [2]; pH 8.5, Na+-free buffer) was 8500 ± 210 µM and the “Affinity change of melibiose with Na+” value (D55C MelBSt mutant; pH 7.5, 100 mM Na+ vs no Na+) was “+1.14-fold”. For the same molecule, the Kd (D55C MelBSt mutant; pH 7.5, 100 mM Na+, read-out: Kd of melibiose binding) was 5090 ± 150 µM, the Kd (D55C MelBSt mutant; pH 7.5, no Na+, read-out: Kd of melibiose binding) was 5820 ± 460 µM and the Kd (WT MelBSt [1]; WT MelBSt, pH 7.5, 100 mM Na+, ITC 25 °C, ref [8], read-out: Kd of melibiose binding) was 1090 ± 60 µM. For the same molecule, the Kd (WT MelBSt [1]; WT MelBSt, pH 7.5, no Na+, ITC 25 °C, ref [8], read-out: Kd of melibiose binding) was 9280 ± 230 µM.
In the case of “Melibiose permease MelB (MelBSt) (Salmonella enterica serovar Typhimurium)”, the pKa (Asp59; Melibiose present (per the Introduction). The Discussion sentence does not specify the sugar state.) is given as “approximately 6.5” and the pKa (Asp59; No melibiose, no Na+/Li+ bound) is given as 6.25.
For `[Li+]` [Li^+], the “Cation binding by ITC” value (D55C MelBSt mutant) is given as “eliminated the binding” and the “Cooperativity number (ratio of Kd values of melibiose and cation in absence or presence of the other)” value (WT MelBSt [1]; melibiose and Li+, ref [6]) is given as ~5.

— article PMC11259710, “Distinct roles of the major binding residues in the cation-binding pocket of the melibiose transporter MelB” (The Journal of Biological Chemistry, 2024)
